Measurements: article PMC12377202, “Design, synthesis, and cytotoxic evaluation of quinazoline-based derivatives as VEGER-2 inhibitors: comparative study against EGFR kinase activity, induction of apoptosis, and molecular docking study” (RSC Advances, 2025)

Experiments:
MCF-7 = assay: MTT anti-proliferative assay, MCF-7; type: cell-based, human
HepG-2 = assay: MTT anti-proliferative assay, HepG-2; type: cell-based, human
TNF-alpha = TNF-alpha level in HepG-2 cells; type: cell-based, human; details: for TNF-alpha ±SE: control 43.48
Protocol: (§1) All synthesized compounds were tested at their cytotoxic concentrations in HepG-2 cells for analysis of gene expression levels of apoptotic markers caspase-3, caspase-9, TNF-α, and IL-6 proteins, and only two active compounds were tested for BAX and Bcl-2 proteins.
(§2) through Flow cytometric analysis.
(§3) Pellets were collected again and incubated with
(§4) Total RNA from vehicle-treated
(§5) (Thermo Scientific, USA).
(§6) All experiments were performed in […]

IL-6R = IL-6R level in HepG-2 cells; type: cell-based, human
Protocol: as §1, §2, §3, §4, §5, §6

VEGFR-2 = VEGFR-2 (Homo sapiens, UniProt P35968); assay: In vitro VEGFR-2 inhibitory assay (ELISA kit); details: VEGFR-2 kinase
Chain of VEGFR-2 (P35968 20-1356): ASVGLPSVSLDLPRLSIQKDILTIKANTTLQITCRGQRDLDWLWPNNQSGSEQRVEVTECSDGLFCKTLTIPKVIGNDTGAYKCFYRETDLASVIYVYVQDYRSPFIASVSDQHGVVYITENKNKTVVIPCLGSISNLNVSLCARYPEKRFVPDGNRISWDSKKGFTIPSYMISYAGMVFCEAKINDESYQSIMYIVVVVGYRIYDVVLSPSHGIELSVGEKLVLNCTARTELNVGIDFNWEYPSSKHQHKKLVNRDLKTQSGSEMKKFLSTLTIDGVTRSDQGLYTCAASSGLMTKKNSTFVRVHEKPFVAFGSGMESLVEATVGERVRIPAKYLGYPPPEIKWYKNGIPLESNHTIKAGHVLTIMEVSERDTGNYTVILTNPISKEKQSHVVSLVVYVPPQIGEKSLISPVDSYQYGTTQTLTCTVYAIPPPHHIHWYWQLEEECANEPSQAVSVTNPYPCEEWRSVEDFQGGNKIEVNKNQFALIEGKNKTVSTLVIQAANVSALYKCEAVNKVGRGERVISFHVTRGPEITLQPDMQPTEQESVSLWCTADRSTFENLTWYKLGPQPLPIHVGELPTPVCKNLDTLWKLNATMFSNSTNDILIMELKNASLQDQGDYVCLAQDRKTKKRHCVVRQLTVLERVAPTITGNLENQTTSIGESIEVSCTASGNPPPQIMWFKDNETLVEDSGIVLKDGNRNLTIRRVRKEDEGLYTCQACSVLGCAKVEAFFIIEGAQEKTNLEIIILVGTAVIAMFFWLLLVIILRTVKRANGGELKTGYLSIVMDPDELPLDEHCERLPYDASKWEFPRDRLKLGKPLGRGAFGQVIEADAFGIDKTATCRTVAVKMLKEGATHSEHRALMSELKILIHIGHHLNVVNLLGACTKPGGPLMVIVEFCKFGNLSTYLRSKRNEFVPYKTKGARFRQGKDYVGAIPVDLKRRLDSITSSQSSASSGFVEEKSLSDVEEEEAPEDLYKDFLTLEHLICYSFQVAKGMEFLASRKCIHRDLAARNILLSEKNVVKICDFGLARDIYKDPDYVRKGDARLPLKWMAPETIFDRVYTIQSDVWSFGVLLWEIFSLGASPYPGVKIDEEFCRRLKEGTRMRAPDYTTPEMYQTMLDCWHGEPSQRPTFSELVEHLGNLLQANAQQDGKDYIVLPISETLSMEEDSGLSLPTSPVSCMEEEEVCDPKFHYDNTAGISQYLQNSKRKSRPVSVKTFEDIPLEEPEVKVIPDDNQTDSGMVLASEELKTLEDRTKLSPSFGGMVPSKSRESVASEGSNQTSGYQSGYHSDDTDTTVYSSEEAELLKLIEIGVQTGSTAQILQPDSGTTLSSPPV

caspase-3 = assay: Caspase-3 expression level in HepG-2 cells; type: cell-based, human; details: for Caspase-3 ± SE: HepG-2, at IC50 concentrations, control 0.460
Protocol: as §1, §2, §3, §4, §5, §6

caspase-9 = assay: Caspase-9 expression level in HepG-2 cells; type: cell-based, human; details: for Caspase-9 ± SE: HepG-2, at IC50 concentrations, control 11.01
Protocol: as §1, §2, §3, §4, §5, §6

K-562 = assay: MTT anti-proliferative assay, K-562; type: cell-based, human
EGFR = EGFR (Homo sapiens, UniProt P00533); assay: EGFR kinase inhibition assay (ELISA kit)

Work on “N-(2,6-Dichlorophenyl)-2-(7-nitro-4-oxoquinazolin-3(4H)-yl)acetamide [9d]” yielded a Toxicity % (MCF-7; MCF-7, 0.195 umol) of 49.43%, a Viability % (MCF-7; MCF-7, 0.195 umol) of 50.57% and a Toxicity % (MCF-7; MCF-7, 0.391 umol) of 61.52%. It also gave a Viability % (MCF-7; MCF-7, 0.391 umol) of 38.48%, a Toxicity % (MCF-7; MCF-7, 0.781 umol) of 74.05% and a Viability % (MCF-7; MCF-7, 0.781 umol) of 25.95%. It also gave a Toxicity % (MCF-7; MCF-7, 1.563 umol) of 65.74%, a Toxicity % (MCF-7; MCF-7, 3.125 umol) of 91.03% and a Viability % (MCF-7; MCF-7, 3.125 umol) of 8.971%. For the same substance, the Toxicity % (MCF-7; MCF-7, 6.25 umol) was 92.04%, the Viability % (MCF-7; MCF-7, 6.25 umol) was 7.96% and the Toxicity % (MCF-7; MCF-7, 12.5 umol) was 93.58%. The Viability % (MCF-7; MCF-7, 12.5 umol) was 6.42%, the Toxicity % (MCF-7; MCF-7, 25 umol) was 92.88% and the Viability % (MCF-7; MCF-7, 25 umol) was 7.124%. The IC50 (MCF-7; MTT, MCF-7, read-out: Cytotoxicity against cancer cells IC50 MCF-7) was 204 ± 2.6 nM, the Toxicity % (HepG-2; HepG-2, 0.195 ug/ml) was 39.23% and the Viability % (HepG-2; HepG-2, 0.195 ug/ml) was 60.77%. For the same substance, the Toxicity % (HepG-2; HepG-2, 0.391 ug/ml) was 55.68%, the Viability % (HepG-2; HepG-2, 0.391 ug/ml) was 44.32% and the Toxicity % (HepG-2; HepG-2, 0.781 ug/ml) was 70.62%. It also gave a Viability % (HepG-2; HepG-2, 0.781 ug/ml) of 29.38%, a Toxicity % (HepG-2; HepG-2, 1.563 ug/ml) of 85.02% and a Viability % (HepG-2; HepG-2, 1.563 ug/ml) of 14.98%. The Toxicity % (HepG-2; HepG-2, 3.125 ug/ml) was 89.27%, the Viability % (HepG-2; HepG-2, 3.125 ug/ml) was 10.73% and the Toxicity % (HepG-2; HepG-2, 6.25 ug/ml) was 91.87%. The Viability % (HepG-2; HepG-2, 6.25 ug/ml) was 8.132%, the Toxicity % (HepG-2; HepG-2, 12.5 ug/ml) was 93.19% and the Viability % (HepG-2; HepG-2, 12.5 ug/ml) was 6.813%. It also gave a Toxicity % (HepG-2; HepG-2, 25 ug/ml) of 93.7%, a Viability % (HepG-2; HepG-2, 25 ug/ml) of 6.3% and an IC50 (HepG-2; MTT, HepG-2, read-out: Cytotoxicity against cancer cells IC50 HepG-2) of 322.7 ± 2.9 nM. The “TNF-alpha ±SE” value (TNF-alpha; HepG-2, at IC50 concentrations) was 10.2 ± 1.53 ng/L, the TNF-α expression level (TNF-alpha; HepG-2, control 43.48%) was 10.2 ng/L and the “TNF-alpha ±SE” value (TNF-alpha; raw data, HepG2) was 16.01 ng/L. For the same substance, the “IL-6R ± SE” value (IL-6R; HepG-2, at IC50 concentrations, control 44.10) was 16.64 ± 0.83 ng/L, the IL-6R protein level (IL-6R; HepG-2, control 44.10%) was 16.64 ng/L and the “IL-6 ±SE” value (IL-6R; raw data, HepG2, control 44.10) was 10.13 ng/L. The Activity % (VEGFR-2; HepG2) was 19.818%, the Inhibition % (VEGFR-2; HepG2) was 80.182% and the Activity % (VEGFR-2; K-562) was 41.248%. For the same substance, the Inhibition % (VEGFR-2; K-562) was 58.752%, the Activity % (VEGFR-2; MCF7) was 52.958% and the Inhibition % (VEGFR-2; MCF7) was 47.042%. For the same substance, the “Caspase-3 ± SE” value (caspase-3) was 0.68 ± 0.013 ng/mL, the “Caspase-3 ± SE” value (caspase-3; listed as N3) was 0.68 ng/mL and the “caspase-3 expression level, fold increase” value (caspase-3; HepG-2, vs control cells) was 1.5 fold. For the same substance, the “Caspase-9 ± SE” value (caspase-9) was 43.52 ± 3.69 ng/L, the “Caspase-9 ± SE” value (caspase-9; listed as N3) was 43.52 ng/L and the “caspase-9 expression level, fold increase” value (caspase-9; HepG-2, vs control cells) was 3.95 fold. It also gave a Toxicity % (K-562; K-562, 0.195 umol) of 0.4516%, a Viability % (K-562; K-562, 0.195 umol) of 99.55% and a Toxicity % (K-562; K-562, 0.391 umol) of 4.146%. It also gave a Viability % (K-562; K-562, 0.391 umol) of 95.85%, a Toxicity % (K-562; K-562, 0.781 umol) of 28.41% and a Viability % (K-562; K-562, 0.781 umol) of 71.59%. For the same substance, the Toxicity % (K-562; K-562, 1.563 umol) was 39.82%, the Viability % (K-562; K-562, 1.563 umol) was 60.18% and the Toxicity % (K-562; K-562, 3.125 umol) was 62.19%. For the same substance, the Viability % (K-562; K-562, 3.125 umol) was 37.81%, the Toxicity % (K-562; K-562, 6.25 umol) was 87.81% and the Viability % (K-562; K-562, 6.25 umol) was 12.19%. For the same substance, the Toxicity % (K-562; K-562, 12.5 umol) was 90.52%, the Viability % (K-562; K-562, 12.5 umol) was 9.483% and the Toxicity % (K-562; K-562, 25 umol) was 92.57%. For the same substance, the Viability % (K-562; K-562, 25 umol) was 7.43%, the IC50 (K-562; MTT, K-562, read-out: Cytotoxicity against cancer cells IC50 K-562) was 2274 ± 3.5 nM and the Activity % (EGFR; HepG2) was 18.428%. For the same substance, the Inhibition % (EGFR; HepG2) was 81.572%, the Activity % (EGFR; K-562) was 16.638% and the Inhibition % (EGFR; K-562) was 83.362%. The Activity % (EGFR; MCF7) was 30.226% and the Inhibition % (EGFR; MCF7) was 69.774%.
